Laboratory results as given in PubChem BioAssay AID248 (DTP/NCI, 2004).
Values joined by “and” are separate entries in the source; they are usually repeats but may differ in a detail not shown here. Equal values may be shown once. Inconclusive results and toxic doses are left out. Cut-off read from the data, not from the text of the source: active = T/C of 150% or more; inactive = T/C below 125%.

System: L1210 leukemia ip in BDF1 mice, survival T/C
Experiment: NCI In Vivo Anticancer Drug Screen. Data for tumor model L1210 Leukemia (intraperitoneal) in B6D2F1 (BDF1) mice
Conditions: endpoint: mean survival time, higher = longer survival
Summary of the method: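 Tumor cells were implanted, animals were treated, and survival was followed. The result divides the treated measurement by the vehicle-control measurement.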

[1] = dose: 100.0 mg/kg/injection, schedule: Q04DX003 (ip), vehicle: saline with Tween-80
[2] = dose: 100.0 mg/kg/injection, schedule: Q04DX003 (ip), vehicle: saline
[3] = dose: 200.0 mg/kg/injection, schedule: Q01DX009 (ip), vehicle: Klucel (hydroxypropylcellulose) (HPC)
[4] = dose: 200.0 mg/kg/injection, schedule: Q04DX003 (ip), vehicle: saline with Tween-80
[5] = dose: 200.0 mg/kg/injection, schedule: Q04DX003 (ip), vehicle: saline
[6] = dose: 400.0 mg/kg/injection, schedule: Q04DX003 (ip), vehicle: saline with Tween-80
[7] = dose: 100.0 mg/kg/injection, schedule: Q04DX002 (ip), vehicle: Klucel (hydroxypropylcellulose) (HPC)
[8] = dose: 200.0 mg/kg/injection, schedule: Q04DX002 (ip), vehicle: Klucel (hydroxypropylcellulose) (HPC)
[9] = dose: 400.0 mg/kg/injection, schedule: Q04DX002 (ip), vehicle: Klucel (hydroxypropylcellulose) (HPC)

Measured: T/C

O=C(Cc1ccccc1)NC(CSSCC(NC(=O)Cc1ccccc1)C(=O)O)C(=O)O (stereo not drawn)
inactive: dose: 88.0 mg/kg/injection, schedule: Q01DX009 (ip), vehicle: Klucel (hydroxypropylcellulose) (HPC) 93 % of control | dose: 100.0 mg/kg/injection, schedule: Q01DX009 (ip), vehicle: saline 100 % of control | [1] 95 % of control | [2] 105 % of control and 97 % of control | dose: 132.0 mg/kg/injection, schedule: Q01DX009 (ip), vehicle: Klucel (hydroxypropylcellulose) (HPC) 90 % of control | [3] 100 % of control | [4] 98 % of control | [5] 107 % of control and 100 % of control | dose: 400.0 mg/kg/injection, schedule: Q01DX009 (ip), vehicle: saline 103 % of control | [6] 98 % of control | dose: 400.0 mg/kg/injection, schedule: Q04DX003 (ip), vehicle: saline 96 % of control and 100 % of control

O=C1OCC/C1=C\NCCCCCCCCN/C=C1\CCOC1=O
inactive: [7] 97 % of control | [8] 108 % of control | [9] 97 % of control

CCCCCC(C)O[Si](C)C1(C)CCCCC1 (stereo not drawn)
inactive: [1] 94 % of control | [4] 94 % of control | [6] 104 % of control

[Cl][Dy]([Cl])[Cl]
inactive: [2] 103 % of control | [5] 114 % of control

CCC/C(=N/NC(=O)c1ccccc1)c1ccccc1
inactive: [7] 110 % of control | [8] 110 % of control | [9] 100 % of control

COc1cc2ccc(CCN)cc2cc1OC
inactive: dose: 12.5 mg/kg/injection, schedule: Q01DX009 (ip), vehicle: saline with Tween-80 101 % of control | dose: 25.0 mg/kg/injection, schedule: Q01DX009 (ip), vehicle: saline with Tween-80 101 % of control | dose: 50.0 mg/kg/injection, schedule: Q01DX009 (ip), vehicle: saline with Tween-80 105 % of control

Nc1nc(N)c(CCCCc2ccccc2)c(/C=C/c2ccc([N+](=O)[O-])cc2)n1
inactive: dose: 100.0 mg/kg/injection, schedule: Q01DX001 (ip), vehicle: gum acacia 92 % of control | dose: 200.0 mg/kg/injection, schedule: Q01DX001 (ip), vehicle: gum acacia 94 % of control | dose: 400.0 mg/kg/injection, schedule: Q01DX001 (ip), vehicle: gum acacia 95 % of control

COc1ccc(CC(=S)N2CCOCC2)cc1
inactive: dose: 100.0 mg/kg/injection, schedule: Q01DX009 (ip), vehicle: Klucel (hydroxypropylcellulose) (HPC) 104 % of control | [7] 98 % of control | [3] 102 % of control | [8] 95 % of control | dose: 400.0 mg/kg/injection, schedule: Q01DX009 (ip), vehicle: Klucel (hydroxypropylcellulose) (HPC) 96 % of control
